Test results taken from patent publication US20260167620A1, “MULTIFUNCTIONAL COMPOUND CAPABLE OF DEGRADING BTK KINASE, AND COMPOSITION AND USE” (HANGZHOU HEALZEN THERAPEUTICS CO., LTD., priority 2021, published 2026).

Molecular target: T1, BTK (Homo sapiens, UniProt Q06187)
T1 construct: endogenous in cells; host or cells: Mino cells
Assay: BTK degradation activity test in Mino cells (Westernblot or Elisa)
Format: cell-based
Conditions: 24-72 h incubation
Experimental: The Mino cell line cells are 0.5˜1 million/well in 6-well plates. The compounds are diluted to different concentrations, added to the plate, and after 24-72 h of incubation, the cells are collected. After the cells were lysed, the total protein concentration in each well was determined with a BCA kit. The amount of BTK is determined using the Westernblot or Elisa method.

T1 sequence (Q06187 whole entry): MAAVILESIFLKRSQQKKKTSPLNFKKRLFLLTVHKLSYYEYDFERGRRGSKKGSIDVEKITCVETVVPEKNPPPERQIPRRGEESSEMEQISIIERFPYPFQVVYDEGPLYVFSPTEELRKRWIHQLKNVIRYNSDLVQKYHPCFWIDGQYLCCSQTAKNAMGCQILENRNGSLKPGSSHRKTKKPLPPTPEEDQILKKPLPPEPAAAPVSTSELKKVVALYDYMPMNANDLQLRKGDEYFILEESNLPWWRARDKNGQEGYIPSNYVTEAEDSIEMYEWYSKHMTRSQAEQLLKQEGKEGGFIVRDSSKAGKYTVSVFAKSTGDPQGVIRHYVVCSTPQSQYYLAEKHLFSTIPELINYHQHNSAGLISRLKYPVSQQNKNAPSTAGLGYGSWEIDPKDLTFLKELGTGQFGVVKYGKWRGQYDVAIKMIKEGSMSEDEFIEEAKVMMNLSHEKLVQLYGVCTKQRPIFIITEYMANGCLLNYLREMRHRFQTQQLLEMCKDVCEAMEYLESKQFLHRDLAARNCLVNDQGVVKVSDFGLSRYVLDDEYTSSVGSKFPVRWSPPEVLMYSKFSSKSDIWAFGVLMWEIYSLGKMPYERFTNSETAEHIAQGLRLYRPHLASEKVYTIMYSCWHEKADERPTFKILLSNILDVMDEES

DC50 | Compound
< 0.01 µM | NC(=O)c1nnc(Nc2ccccn2)nc1Nc1ccc(C2CCN(CC3CCN(c4ccc5c(c4)C(=O)N(C4CCC(=O)NC4=O)C5=O)C3)CC2)cc1 (stereo not shown) [Compound 021, 5-((4-(1-((1-(2-(2,6-dioxopiperidin-3-yl)-1,3-dioxoisoindolin-5-yl)pyrrolidin-3-yl)methyl)piperidin-4-yl)phenyl)amino)-3-(pyridin-2-ylamino)-1,2,4-triazine-6-carboxamide]
< 0.01 µM | NC(=O)c1nnc(-c2nccs2)nc1Nc1ccc(C2CCN(CC3CCN(c4ccc5c(c4)C(=O)N(C4CCC(=O)NC4=O)C5=O)C3)CC2)cc1 (stereo not shown) [Compound 024, 5-((4-(1-((1-(2-(2,6-dioxopiperidin-3-yl)-1,3-dioxoisoindolin-5-yl)pyrrolidin-3-yl)methyl)piperidin-4-yl)phenyl)amino)-3-(thiazol-2-yl)-1,2,4-triazine-6-carboxamide]
< 0.01 µM | CC(OC(=O)C(C)(C)C)N1C(=O)CCN(c2ccc(N3CCN(CC4CCN(c5ccc(Nc6nc(N7CCCCC7)nnc6C(N)=O)cc5F)CC4)CC3)cc2)C1=O (stereo not shown) [Compound 072, 1-(3-(4-(4-((1-(4-((6-carbamoyl-3-(piperidin-1-yl)-1,2,4-triazin-5-yl)amino)-2-fluorophenyl)piperidin-4-yl)methyl)piperazin-1-yl)phenyl)-2,6-dioxotetrahydropyrimidin-1(2H)-yl) ethyl pivalate]
< 0.01 µM | NC(=O)c1nnc(N2CCCCC2)nc1Nc1ccc(N2CCC(CN3CCN(c4ccc(-c5ccc(=O)[nH]n5)cc4C(F)(F)F)CC3)CC2)c(F)c1 [Compound 089, 5-((3-fluoro-4-(4-((4-(4-(6-oxo-1,6-dihydropyridazin-3-yl)-2-(trifluoromethyl)phenyl)piperazin-1-yl)methyl)piperidin-1-yl)phenyl)amino)-3-(piperidin-1-yl)-1,2,4-triazine-6-carboxamide]
< 0.01 µM | NC(=O)c1nnc(N2CCCCC2)nc1Nc1ccc(C2CCN(CC3CCN(c4ccc5c(c4)CN(C4CCC(=O)NC4=O)C5=O)C3)CC2)cc1 (stereo not shown) [Compound 009, 5-((4-(1-((1-(2-(2,6-dioxopiperidin-3-yl)-1-oxoisoindolin-5-yl)pyrrolidin-3-yl)methyl)piperidin-4-yl)phenyl)amino)-3-(piperidin-1-yl)-1,2,4-triazine-6-carboxamide]
< 0.01 µM | CC(C)(C)C(=O)OCN1C(=O)CCC(N2C(=O)c3ccc(N4CCC(CN5CCC(c6ccc(Nc7nc(N8CCCCC8)nnc7C(N)=O)cc6)CC5)C4)cc3C2=O)C1=O (stereo not shown) [Compound 062, (3-(5-(3-((4-(4-((6-carbamoyl-3-(piperidin-1-yl)-1,2,4-triazin-5-yl)amino)phenyl)piperidin-1-yl)methyl)pyrrolidin-1-yl)-1,3-dioxoisoindolin-2-yl)-2,6-dioxopiperidin-1-yl) methyl pivalate]
< 0.01 µM | NC(=O)c1nnc(N2CCOCC2)nc1Nc1ccc(N2CCN(CC3CCN(c4ncc(-c5ccc(=O)[nH]n5)cc4C(F)(F)F)CC3)CC2)c(F)c1 [Compound 102, 5-((3-fluoro-4-(4-((1-(5-(6-oxo-1,6-dihydropyridazin-3-yl)-3-(trifluoromethyl)pyridin-2-yl)piperidin-4-yl)methyl)piperazin-1-yl)phenyl)amino)-3-morpholino-1,2,4-triazine-6-carboxamide]
< 0.01 µM | CC(C)(C)C(=O)OCN1C(=O)CCN(c2ccc(N3CCN(CC4CCN(c5ccc(Nc6nc(N7CCCCC7)nnc6C(N)=O)cc5F)CC4)CC3)cc2)C1=O [Compound 066, (3-(4-(4-((1-(4-((6-carbamoyl-3-(piperidin-1-yl)-1,2,4-triazin-5-yl)amino)-2-fluorophenyl)piperidin-4-yl)methyl)piperazin-1-yl)phenyl)-2,6-dioxotetrahydropyrimidin-1(2H)-yl) methyl pivalate]
< 0.01 µM | NC(=O)c1nnc(N2CCOCC2)nc1Nc1ccc(N2CCN(CC3CCN(c4ccc(N5CCC(=O)NC5=O)cc4)CC3)CC2)c(F)c1 [Compound 099, 5-((4-(4-((1-(4-(2,4-dioxotetrahydropyrimidin-1(2H)-yl)phenyl)piperidin-4-yl)methyl)piperazin-1-yl)-3-fluorophenyl)amino)-3-morpholino-1,2,4-triazine-6-carboxamide]
< 0.01 µM | NC(=O)c1nnc(N2CCC[C@@H](O)C2)nc1Nc1ccc(C2CCN(CC3CCN(c4ccc5c(c4)C(=O)N(C4CCC(=O)NC4=O)C5=O)C3)CC2)cc1 (stereo partly drawn) [Compound 015, 5-((4-(1-((1-(2-(2,6-dioxopiperidin-3-yl)-1,3-dioxoisoindolin-5-yl)pyrrolidin-3-yl)methyl)piperidin-4-yl)phenyl)amino)-3-((R)-3-hydroxypiperidin-1-yl)-1,2,4-triazine-6-carboxamide]
< 0.01 µM | NC(=O)c1nnc(-c2ncc[nH]2)nc1Nc1ccc(C2CCN(CC3CCN(c4ccc5c(c4)C(=O)N(C4CCC(=O)NC4=O)C5=O)C3)CC2)cc1 (stereo not shown) [Compound 025, 5-((4-(1-((1-(2-(2,6-dioxopiperidin-3-yl)-1,3-dioxoisoindolin-5-yl)pyrrolidin-3-yl)methyl)piperidin-4-yl)phenyl)amino)-3-(1H-imidazol-2-yl)-1,2,4-triazine-6-carboxamide]
< 0.01 µM | CC(C)(C)C(=O)OCN1C(=O)CCC(N2C(=O)c3ccc(N4CCC(CN5CCN(c6ccc(Nc7nc(N8CCCCC8)nnc7C(N)=O)cc6F)CC5)C4)cc3C2=O)C1=O (stereo not shown) [Compound 064, (3-(5-(3-((4-(4-((6-carbamoyl-3-(piperidin-1-yl)-1,2,4-triazin-5-yl)amino)-2-fluorophenyl)piperazin-1-yl)methyl)pyrrolidin-1-yl)-1,3-dioxoisoindolin-2-yl)-2,6-dioxopiperidin-1-yl) methyl pivalate]
< 0.01 µM | NC(=O)c1nnc(Oc2cccc(O)c2)nc1Nc1ccc(C2CCN(CC3CCN(c4ccc5c(c4)C(=O)N(C4CCC(=O)NC4=O)C5=O)C3)CC2)cc1 (stereo not shown) [Compound 027, 5-((4-(m-((1-(2-(2,6-dioxopiperidin-3-yl)-1,3-dioxoisoindolin-5-yl)pyrrolidin-3-yl)methyl)piperidin-4-yl)phenyl)amino)-3-(3-hydroxyphenoxy)-1,2,4-triazine-6-carboxamide]
< 0.01 µM | NC(=O)c1nnc(N2CCNCC2)nc1Nc1ccc(C2CCN(CC3CCN(c4ccc5c(c4)C(=O)N(C4CCC(=O)NC4=O)C5=O)C3)CC2)cc1 (stereo not shown) [Compound 031, 5-((4-(1-((1-(2-(2,6-dioxopiperidin-3-yl)-1,3-dioxoisoindolin-5-yl)pyrrolidin-3-yl)methyl)piperidin-4-yl)phenyl)amino)-3-(piperazin-1-yl)-1,2,4-triazine-6-carboxamide]
< 0.01 µM | CN1CCN(c2nnc(C(N)=O)c(Nc3ccc(N4CCC(CN5CCN(c6ccc(N7CCC(=O)NC7=O)cc6)CC5)CC4)nc3)n2)CC1 [Compound 047, 5-((6-(4-((4-(4-(2,4-dioxotetrahydropyrimidin-1(2H)-yl)phenyl)piperazin-1-yl)methyl)piperidin-1-yl)pyridin-3-yl)amino)-3-(4-methylpiperazin-1-yl)-1,2,4-triazine-6-carboxamide]
< 0.01 µM | NC(=O)c1nnc(N2CCCCC2)cc1Nc1ccc(C2CCN(CC3CCN(c4ccc5c(c4)C(=O)N(C4CCC(=O)NC4=O)C5=O)C3)CC2)cc1 (stereo not shown) [Compound 040, 4-((4-(1-((1-(2-(2,6-dioxopiperidin-3-yl)-1,3-dioxoisoindolin-5-yl)pyrrolidin-3-yl)methyl)piperidin-4-yl)phenyl)amino)-6-(piperidin-1-yl) pyridazine-3-carboxamide]
< 0.01 µM | NC(=O)c1nnc(N2CCC[C@@H](N)C2)nc1Nc1ccc(C2CCN(CC3CCN(c4ccc5c(c4)C(=O)N(C4CCC(=O)NC4=O)C5=O)C3)CC2)cc1 (stereo partly drawn) [Compound 029, 3-((R)-3-aminopiperidin-1-yl)-5-((4-(1-((1-(2-(2,6-dioxopiperidin-3-yl)-1,3-dioxoisoindolin-5-yl)pyrrolidin-3-yl)methyl)piperidin-4-yl)phenyl)amino)-1,2,4-triazine-6-carboxamide]
< 0.01 µM | NC(=O)c1cnc(N2CCCCC2)cc1Nc1ccc(N2CCN(CC3CCN(c4ccc5c(c4)C(=O)N(C4CCC(=O)NC4=O)C5=O)C3)CC2)c(F)c1 (stereo not shown) [Compound 037, 4-((4-(4-((1-(2-(2,6-dioxopiperidin-3-yl)-1,3-dioxoisoindolin-5-yl)pyrrolidin-3-yl)methyl)piperazin-1-yl)-3-fluorophenyl)amino)-6-(piperidin-1-yl) nicotinamide]
< 0.01 µM | NC(=O)c1nnc(N2CCOCC2)nc1Nc1ccc(N2CCN(CC3CCN(c4ccc(NC5CCC(=O)NC5=O)nc4)CC3)CC2)c(F)c1 (stereo not shown) [Compound 104, 5-((4-(4-((1-(6-((2,6-dioxopiperidin-3-yl)amino)pyridin-3-yl)piperidin-4-yl)methyl)piperazin-1-yl)-3-fluorophenyl)amino)-3-morpholino-1,2,4-triazine-6-carboxamide]
< 0.01 µM | NC(=O)c1nnc(N[C@H]2CCCC[C@H]2N)nc1Nc1ccc(C2CCN(CC3CCN(c4ccc5c(c4)C(=O)N(C4CCC(=O)NC4=O)C5=O)C3)CC2)cc1 (stereo partly drawn) [Compound 030, 3-(((1S,2R)-2-aminocyclohexyl)amino)-5-((4-(1-((1-(2-(2,6-dioxopiperidin-3-yl)-1,3-dioxoisoindolin-5-yl)pyrrolidin-3-yl)methyl)piperidin-4-yl)phenyl)amino)-1,2,4-triazine-6-carboxamide]
< 0.01 µM | NC(=O)c1nnc(N2CCCCC2)nc1Nc1ccc(N2CCC(C(=O)N3CCN(c4ccc5c(c4)C(=O)N(C4CCC(=O)NC4=O)C5=O)CC3)CC2)cc1 (stereo not shown) [Compound 060, 5-((4-(4-(4-(2-(2,6-dioxopiperidin-3-yl)-1,3-dioxoisoindolin-5-yl)piperazine-1-carbonyl)piperidin-1-yl)phenyl)amino)-3-(piperidin-1-yl)-1,2,4-triazine-6-carboxamide]
< 0.01 µM | NC(=O)c1nnc(N2CCCCC2)nc1Nc1ccc(C2CCN(CC3CN(c4ccc5c(c4)C(=O)N(C4CCC(=O)NC4=O)C5=O)C3)CC2)cc1 (stereo not shown) [Compound 008, 5-((4-(1-((1-(2-(2,6-dioxopiperidin-3-yl)-1,3-dioxoisoindolin-5-yl)azetidin-3-yl)methyl)piperidin-4-yl)phenyl)amino)-3-(piperidin-1-yl)-1,2,4-triazine-6-carboxamide]
